We go through eleven molecules from US20260015350A1, “AZAQUINAZOLINE PAN-KRAS INHIBITORS” (Mirati Therapeutics, Inc., priority 2022, published 2026).

SMILES strings stand for the structures.

Experiment [1] relates to KRas-mediated phosphorylation of ERK in H727 cells. Kind of experiment: Inhibition of KRas-mediated phosphorylation of ERK (Cisbio HTRF pERK), H727 cells. The following applies: Homo sapiens, NCI-H727, H727 cells; HTRF pERK. The experiment is classed as cell-based. An outline of the steps: (§1)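 Cells were seeded at 6,000 per well and treated for 3 hrs with compound in a 10-dose, 3-fold series from 10 uM (0.8% final DMSO), with 0.2 uM Trametinib as Min control. Lysates made at 4° C over 40 mins were incubated 2 hrs at room temperature with d2- and Cryptate-labelled antibodies, then read by HTRF.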
In general terms: TR-FRET usually uses a lanthanide donor and a delayed reading to cut background.

The target of a further experiment is T1, KRas^G12D (Homo sapiens, UniProt P01116, G12D).
T1 construct: Biotinylated KRas (corresponding to amino acids 1-169, produced at Accelegan Inc.); biotin (biotinylated); purchased Accelegan Inc
T1 sequence (P01116 1-169 isoform P01116-2 G12D): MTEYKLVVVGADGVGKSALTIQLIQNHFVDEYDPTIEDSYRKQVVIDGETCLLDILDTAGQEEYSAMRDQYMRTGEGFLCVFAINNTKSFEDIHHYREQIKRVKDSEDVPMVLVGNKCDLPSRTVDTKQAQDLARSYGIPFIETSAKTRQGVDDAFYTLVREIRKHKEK
In words: KRas binding assay (TR-FRET tracer displacement), KRas G12D.

Experiment [2] concerns KRas-mediated phosphorylation of ERK in HCT116 cells. In words: Inhibition of KRas-mediated phosphorylation of ERK (Cisbio HTRF pERK), HCT116 cells. The experiment is classed as cell-based. The following applies: Homo sapiens, HCT-116, HTRF pERK. An outline of the steps:
(§2)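 Compound treatment lasts 3 hrs on 6,000 seeded cells, testing 10 doses from a 10 uM top concentration in 3-fold decrements at 0.8% final DMSO. Trametinib at 0.2 uM defines the Min signal. Detection is HTRF on cold-lysed cell extracts.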

Experiment [3] relates to KRas-mediated phosphorylation of ERK in PSN1 cells. In words: Inhibition of KRas-mediated phosphorylation of ERK (Cisbio HTRF pERK), PSN1 cells. The experiment is classed as cell-based. As to conditions: Homo sapiens. An outline of the steps: (§3)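 Overnight culture at 37° C./5% CO2 in RPMI containing 10% FBS, seeded 6,000 cells per well, preceded the assay. A covered 4-hour incubation at room temperature followed, then HTRF signal for phosphorylated ERK was measured.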

The subject of experiment [4] is KRas-mediated phosphorylation of ERK in MKN1 cells. Kind of experiment: Inhibition of KRas-mediated phosphorylation of ERK (Cisbio HTRF pERK), MKN1 cells. The experiment is classed as cell-based. The following applies: Homo sapiens, MKN-1. An outline of the steps:
as §3

The target of a further experiment is T2, KRas^G12R (Homo sapiens, UniProt P01116, G12R).
T2 construct: Biotinylated KRas (corresponding to amino acids 1-169, produced at Accelegan Inc.); biotin (biotinylated); purchased Accelegan Inc
T2 sequence (P01116 1-169 isoform P01116-2 G12R): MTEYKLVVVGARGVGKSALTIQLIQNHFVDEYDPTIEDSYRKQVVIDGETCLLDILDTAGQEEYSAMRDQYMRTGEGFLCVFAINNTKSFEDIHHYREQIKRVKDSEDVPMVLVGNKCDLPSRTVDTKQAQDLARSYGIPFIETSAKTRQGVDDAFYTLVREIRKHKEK
Kind of experiment: KRas binding assay (TR-FRET tracer displacement), KRas G12R.

In experiment [5] the test system is KRas-mediated phosphorylation of ERK in A549 cells. In words: Inhibition of KRas-mediated phosphorylation of ERK (Cisbio HTRF pERK), A549 cells. The format is cell-based. The following applies: Homo sapiens, HTRF pERK. Put shortly: as §2
The test system of experiment [6] is KRas-mediated phosphorylation of ERK in AsPC-1 cells. Kind of experiment: Inhibition of KRas-mediated phosphorylation of ERK (Cisbio HTRF pERK), AsPC-1 cells. As to conditions: Homo sapiens, ASPC1, AsPC-1 cells; HTRF pERK. The experiment is classed as cell-based. An outline of the steps: as §1
For another experiment, the target named is T3, KRas^G12V (Homo sapiens, UniProt P01116, G12V).
T3 construct: Biotinylated KRas (corresponding to amino acids 1-169, produced at Accelegan Inc.); biotin (biotinylated); purchased Accelegan Inc
T3 sequence (P01116 1-169 isoform P01116-2 G12V): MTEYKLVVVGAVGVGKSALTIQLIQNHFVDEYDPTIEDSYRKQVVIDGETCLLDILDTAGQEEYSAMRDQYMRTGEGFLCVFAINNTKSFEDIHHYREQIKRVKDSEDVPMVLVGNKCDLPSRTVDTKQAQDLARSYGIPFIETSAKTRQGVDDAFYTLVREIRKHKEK
In words: KRas binding assay (TR-FRET tracer displacement), KRas G12V.

The test system of experiment [7] is KRas-mediated phosphorylation of ERK in H460 cells. Kind of experiment: Inhibition of KRas-mediated phosphorylation of ERK (Cisbio HTRF pERK), H460 cells. The format is cell-based. As to conditions: Homo sapiens, NCI-H460, HTRF pERK. Put shortly: as §1

Regarding `CCc1c(F)ccc2cc(O)cc(-c3ncc4c(N5CCC6CCC(C6)C5)nc(OC[C@@]56CCCN5C[C@H](F)C6)nc4c3F)c12` (stereo partly drawn) [Example 550, 4-(4-(3-azabicyclo[4.2.1]nonan-3-yl)-8-fluoro-2-(((2R,7aS)-2-fluorotetrahydro-1H-pyrrolizin-7a(5H)-yl)methoxy)pyrido[4,3-d]pyrimidin-7-yl)-5-ethyl-6-fluoronaphthalen-2-ol], the IC50 (in general, the concentration that inhibits the measured activity by half) is 293 nM in experiment [1]; 47 nM on KRas^G12D; 1370 nM in experiment [2]; greater than 10000 nM in [3]; 645 nM in [4]; 8 nM on KRas^G12R. Further, the IC50 in experiment [5] worked out at 423 nM; in experiment [6] it was 590 nM; on KRas^G12V, 14 nM.

Take `CCc1c(F)ccc2cc(O)cc(-c3ncc4c(N5CCCO[C@@H](CCO)C5)nc(OC[C@@]56CCCN5C[C@H](F)C6)nc4c3F)c12` [Example 578, 5-ethyl-6-fluoro-4-(8-fluoro-2-(((2R,7aS)-2-fluorohexahydro-1H-pyrrolizin-7a-yl)methoxy)-4-((S)-2-(2-hydroxyethyl)-1,4-oxazepan-4-yl)pyrido[4,3-d]pyrimidin-7-yl)naphthalen-2-ol]: the IC50 in [1] is 258 nM; at KRas^G12D, 5 nM; in [3], greater than 10000 nM; in experiment [4], 1 nM; at KRas^G12R, 2 nM; in experiment [5], 467 nM. In addition, the IC50 in experiment [6] turned out to be 294 nM; on KRas^G12V it was 8 nM; in experiment [7] it was 125 nM.

On to `CCc1c(F)ccc2cc(O)cc(-c3ncc4c(N5CCCOC(CCOC)C5)nc(OC[C@@]56CCCN5C[C@H](F)C6)nc4c3F)c12` (stereo partly drawn) [Example 601, 5-ethyl-6-fluoro-4-(8-fluoro-2-(((2R,7aS)-2-fluorohexahydro-1H-pyrrolizin-7a-yl)methoxy)-4-(2-(2-methoxyethyl)-1,4-oxazepan-4-yl)pyrido[4,3-d]pyrimidin-7-yl)naphthalen-2-ol], for which the IC50 in experiment [1] was 300 nM; on KRas^G12D it was 14 nM; in experiment [3], greater than 10000 nM; in experiment [4] it was 26 nM; on KRas^G12R, 7 nM; in experiment [5], 344 nM. The values for the IC50 (in experiment [6]; on KRas^G12V; in [7]) were 376 nM, 12 nM and 133 nM, respectively.

On to `CCc1c(F)ccc2cc(O)cc(-c3ncc4c(N[C@@H](C)c5cc(C(=O)N(C)C)nn5C)nc(OC[C@@]56CCCN5C[C@H](F)C6)nc4c3F)c12` [Example 650, 5-((S)-1-((7-(8-ethyl-7-fluoro-3-hydroxynaphthalen-1-yl)-8-fluoro-2-(((2R,7aS)-2-fluorohexahydro-1H-pyrrolizin-7a-yl)methoxy)pyrido[4,3-d]pyrimidin-4-yl)amino)ethyl)-N,N,1-trimethyl-1H-pyrazole-3-carboxamide], for which the IC50 was 162 nM in experiment [1]; 14 nM at KRas^G12D; 2410 nM in experiment [2]; greater than 10000 nM in experiment [3]; 256 nM in experiment [4]; 3 nM on KRas^G12R. Also, the figures for the IC50 (in [5]; in experiment [6]; on KRas^G12V) were 847 nM, 1320 nM and less than 2 nM, respectively.

In the case of `CCc1c(F)ccc2cc(O)cc(-c3ncc4c(N5CCCC(N6CCCCS6(=O)=O)C5)nc(OC[C@@]56CCCN5C[C@H](F)C6)nc4c3F)c12` (stereo partly drawn) [Example 664, 2-(1-(7-(8-ethyl-7-fluoro-3-hydroxynaphthalen-1-yl)-8-fluoro-2-(((2R,7aS)-2-fluorohexahydro-1H-pyrrolizin-7a-yl)methoxy)pyrido[4,3-d]pyrimidin-4-yl)piperidin-3-yl)-1,2-thiazinane 1,1-dioxide], the IC50 is 351 nM in experiment [1]; 7 nM on KRas^G12D; greater than 10000 nM in [3]; 5 nM in experiment [4]; 2 nM on KRas^G12R; 152 nM in [5]. Also, the IC50 in [6] came to 567 nM; on KRas^G12V, 6 nM.

With `CCc1c(F)ccc2cc(O)cc(-c3ncc4c(N5CCC[C@@](C)(O)C5)nc(OC[C@@]56CCCN5C[C@H](F)CC6)nc4c3F)c12` [Example 815, (R)-1-(7-(8-ethyl-7-fluoro-3-hydroxynaphthalen-1-yl)-8-fluoro-2-(((6R,8aS)-6-fluorohexahydroindolizin-8a (1H)-yl)methoxy)pyrido[4,3-d]pyrimidin-4-yl)-3-methylpiperidin-3-ol], the IC50 in [1] worked out at 28 nM; at KRas^G12D it was 2 nM; in experiment [3] it was 2290 nM; in experiment [4], 22 nM; on KRas^G12R it was 4 nM; in experiment [6], 32 nM. The molecule also returned an IC50 on KRas^G12V of less than 2 nM.

With `Oc1cc(-c2ncc3c(N4C[C@@H]5C[C@H](C4)[C@H](O)C5)nc(OC[C@@]45CCCN4C[C@H](F)C5)nc3c2F)c2cc(C(F)(F)F)ccc2c1` [Example 817, (1R,5R,6R)-3-(8-fluoro-2-(((2R,7aS)-2-fluorotetrahydro-1H-pyrrolizin-7a(5H)-yl)methoxy)-7-(3-hydroxy-7-(trifluoromethyl)naphthalen-1-yl)pyrido[4,3-d]pyrimidin-4-yl)-3-azabicyclo[3.2.1]octan-6-ol], the IC50 in experiment [1] came to 43 nM; on KRas^G12D, 5 nM; in [3], 5110 nM; in [4], 50 nM; at KRas^G12R it was 2 nM; in [6], 188 nM. The molecule further registered an IC50 on KRas^G12V of less than 2 nM.

In the case of `CCc1c(F)ccc2cc(O)cc(-c3ncc4c(N5CCCCC(n6ccnn6)C5)nc(OC[C@@]56CCCN5C[C@H](F)C6)nc4c3F)c12` (stereo partly drawn) [Example 830, 4-(4-(3-(1H-1,2,3-triazol-1-yl)azepan-1-yl)-8-fluoro-2-(((2R,7aS)-2-fluorotetrahydro-1H-pyrrolizin-7a(5H)-yl)methoxy)pyrido[4,3-d]pyrimidin-7-yl)-5-ethyl-6-fluoronaphthalen-2-ol], the IC50 in experiment [1] is 267 nM; on KRas^G12D, 5 nM; in [3] it was 7860 nM; in experiment [4], 188 nM; at KRas^G12R it was 12 nM; in [6], 272 nM. This molecule yielded an IC50 at KRas^G12V of 5 nM.

For `CCc1c(F)ccc2cc(O)cc(-c3ncc4c(N5C[C@H]6CC[C@@H](C5)N6C5CC(F)(F)C5)nc(OC[C@@]56CCCN5C[C@H](F)C6)nc4c3F)c12` [Example 831, 4-(4-((1R,5S)-8-(3,3-difluorocyclobutyl)-3,8-diazabicyclo[3.2.1]octan-3-yl)-8-fluoro-2-(((2R,7aS)-2-fluorotetrahydro-1H-pyrrolizin-7a(5H)-yl)methoxy)pyrido[4,3-d]pyrimidin-7-yl)-5-ethyl-6-fluoronaphthalen-2-ol], the IC50 is 1080 nM in experiment [1]; 42 nM on KRas^G12D; greater than 10000 nM in experiment [3]; 13 nM in experiment [4]; 38 nM on KRas^G12R; 331 nM in [6]. At KRas^G12V, this molecule registered an IC50 of 36 nM.

Consider `CCc1c(F)ccc2cc(O)cc(-c3ncc4c(N5CCCC6(CCS6)C5)nc(OC[C@@]56CCCN5C[C@H](F)C6)nc4c3F)c12` (stereo partly drawn) [Example 838, 5-ethyl-6-fluoro-4-(8-fluoro-2-(((2R,7aS)-2-fluorotetrahydro-1H-pyrrolizin-7a(5H)-yl)methoxy)-4-(1-thia-6-azaspiro[3.5]nonan-6-yl)pyrido[4,3-d]pyrimidin-7-yl)naphthalen-2-ol], for which the IC50 in experiment [1] was 1030 nM; on KRas^G12D it was 16 nM; in [3] it was greater than 10000 nM; in experiment [4], 222 nM; on KRas^G12R, 15 nM; in experiment [6] it was 508 nM. The molecule further returned an IC50 at KRas^G12V of 10 nM.

For `CCc1c(F)ccc2cc(O)cc(-c3ncc4c(N5CC6CCC(CC6)C5)nc(OC[C@@]56CCCN5C[C@H](F)C6)nc4c3F)c12` [Example 844, 4-(4-(3-azabicyclo[3.2.2]nonan-3-yl)-8-fluoro-2-(((2R,7aS)-2-fluorotetrahydro-1H-pyrrolizin-7a(5H)-yl)methoxy)pyrido[4,3-d]pyrimidin-7-yl)-5-ethyl-6-fluoronaphthalen-2-ol], the IC50 in experiment [1] was 2900 nM; on KRas^G12D, 103 nM; in [3], greater than 10000 nM; in experiment [4], 198 nM; at KRas^G12R, 46 nM; in [6] it was 3330 nM. The IC50 at KRas^G12V was 35 nM.
